# Source: PMC5218480 (PLoS ONE, 2017)
# Test system: MV-4-11 cells
# Experiment: Gene expression microarray analysis (Affymetrix PrimeView) and GSEA
# Format: cell-based, human
# Parameters: RFU PODN (11730768_x_at) / Fold change /veh PODN (11730768_x_at) / RFU LINC00158 (11744669_a_at) / Fold change /veh LINC00158 (11744669_a_at) / RFU DUSP10 (11751237_a_at) / Fold change /veh DUSP10 (11751237_a_at) / RFU ID3 (11757404_x_at) / Fold change /veh ID3 (11757404_x_at) / RFU PLEKHG5 (11737974_s_at) / Fold change /veh PLEKHG5 (11737974_s_at) / RFU LRRC4B (11730491_at) / Fold change /veh LRRC4B (11730491_at) / RFU GIMAP4 (11747438_a_at) / Fold change /veh GIMAP4 (11747438_a_at) / RFU KRT8 (11758183_x_at) / Fold change /veh KRT8 (11758183_x_at) / RFU CNN1 (11734310_a_at) / Fold change /veh CNN1 (11734310_a_at) / RFU VPS37D (11726825_at) / Fold change /veh VPS37D (11726825_at) / RFU C10orf10 (11716522_x_at) / Fold change /veh C10orf10 (11716522_x_at) / RFU KIR2DL2 /// KIR2DL4 /// KIR2DL5A /// KIR2DL5B /// KIR2DS1 /// KIR2DS2 /// KIR2DS3 /// KIR2DS4 /// KIR3DL3 /// KIR3DL3 /// KIR3DS1 (11738374_at) / Fold change /veh KIR2DL2 /// KIR2DL4 /// KIR2DL5A /// KIR2DL5B /// KIR2DS1 /// KIR2DS2 /// KIR2DS3 /// KIR2DS4 /// KIR3DL3 /// KIR3DL3 /// KIR3DS1 (11738374_at) / RFU C1QL1 (11718748_at) / Fold change /veh C1QL1 (11718748_at) / RFU TMPRSS4 (11747572_a_at) / Fold change /veh TMPRSS4 (11747572_a_at) / RFU HAMP (11756126_x_at) / Fold change /veh HAMP (11756126_x_at) / RFU RNFT2 (11725882_a_at) / Fold change /veh RNFT2 (11725882_a_at) / RFU NR4A2 (11747474_a_at) / Fold change /veh NR4A2 (11747474_a_at) / RFU ABCC12 (11746883_a_at) / Fold change /veh ABCC12 (11746883_a_at) / RFU TMEM136 (11760407_x_at) / Fold change /veh TMEM136 (11760407_x_at) / RFU CLDN22 /// WWC2 (11732394_at) / Fold change /veh CLDN22 /// WWC2 (11732394_at) / RFU HLA-DPB1 (11760878_x_at) / Fold change /veh HLA-DPB1 (11760878_x_at) / RFU SPINT1 (11716480_a_at) / Fold change /veh SPINT1 (11716480_a_at) / RFU GAP43 (11754022_s_at) / Fold change /veh GAP43 (11754022_s_at) / RFU A4GNT (11735810_at) / Fold change /veh A4GNT (11735810_at) / RFU PRB3 (11715151_x_at) / Fold change /veh PRB3 (11715151_x_at) / RFU TUBB4B (11761932_at) / Fold change /veh TUBB4B (11761932_at) / RFU CAPN14 (11732068_a_at) / Fold change /veh CAPN14 (11732068_a_at) / RFU TMCC2 (11721928_a_at) / Fold change /veh TMCC2 (11721928_a_at) / RFU IRGQ (11745062_a_at) / Fold change /veh IRGQ (11745062_a_at) / RFU FAM174B (11720279_a_at) / Fold change /veh FAM174B (11720279_a_at) / RFU TMPRSS4 (11748680_a_at) / Fold change /veh TMPRSS4 (11748680_a_at) / RFU FAM212B (11763350_a_at) / Fold change /veh FAM212B (11763350_a_at) / RFU PLEKHG5 (11743358_a_at) / Fold change /veh PLEKHG5 (11743358_a_at) / RFU ZSCAN30 (11745921_a_at) / Fold change /veh ZSCAN30 (11745921_a_at) / RFU CMKLR1 (11741424_a_at) / Fold change /veh CMKLR1 (11741424_a_at) / RFU LOC101060620 /// MAPK8IP1 (11723275_at) / Fold change /veh LOC101060620 /// MAPK8IP1 (11723275_at) / RFU SPTSSB (11747773_x_at) / Fold change /veh SPTSSB (11747773_x_at) / RFU PRSS12 (11739890_at) / Fold change /veh PRSS12 (11739890_at) / RFU BIN1 (11741810_x_at) / Fold change /veh BIN1 (11741810_x_at) / RFU WNT11 (11732464_a_at) / Fold change /veh WNT11 (11732464_a_at) / RFU C10orf10 (11716521_a_at) / Fold change /veh C10orf10 (11716521_a_at) / RFU C5orf56 (11738089_at) / Fold change /veh C5orf56 (11738089_at) / RFU CYB561 (11721691_x_at) / Fold change /veh CYB561 (11721691_x_at) / RFU ANKRD19P (11752326_a_at) / Fold change /veh ANKRD19P (11752326_a_at) / RFU OR2T12 /// OR2T33 /// OR2T8 (11738714_s_at) / Fold change /veh OR2T12 /// OR2T33 /// OR2T8 (11738714_s_at) / RFU VCAN (11748164_a_at) / Fold change /veh VCAN (11748164_a_at) / RFU JSRP1 (11732532_at) / Fold change /veh JSRP1 (11732532_at) / RFU KRTAP10-11 (11738290_x_at) / Fold change /veh KRTAP10-11 (11738290_x_at) / RFU MYO3A (11730013_a_at) / Fold change /veh MYO3A (11730013_a_at) / RFU EBF3 (11725865_a_at) / Fold change /veh EBF3 (11725865_a_at) / RFU CAMK2N1 (11719241_x_at) / Fold change /veh CAMK2N1 (11719241_x_at) / RFU C5orf56 (11738088_a_at) / Fold change /veh C5orf56 (11738088_a_at) / RFU OLFML3 (11715873_a_at) / Fold change /veh OLFML3 (11715873_a_at) / RFU LOC100653217 /// NTM (11731650_a_at) / Fold change /veh LOC100653217 /// NTM (11731650_a_at) / RFU MAPK11 (11762145_a_at) / Fold change /veh MAPK11 (11762145_a_at) / RFU FIZ1 (11724087_x_at) / Fold change /veh FIZ1 (11724087_x_at) / RFU OASL (11726364_x_at) / Fold change /veh OASL (11726364_x_at) / RFU SOX15 (11748057_x_at) / Fold change /veh SOX15 (11748057_x_at) / RFU CD79A (11719716_a_at) / Fold change /veh CD79A (11719716_a_at) / RFU HIST1H1D (11736915_at) / Fold change /veh HIST1H1D (11736915_at) / RFU CASKIN2 (11723855_a_at) / Fold change /veh CASKIN2 (11723855_a_at) / RFU LOC730098 (11760151_x_at) / Fold change /veh LOC730098 (11760151_x_at) / RFU OR4N2 (11742367_at) / Fold change /veh OR4N2 (11742367_at) / RFU PRRT2 (11749266_a_at) / Fold change /veh PRRT2 (11749266_a_at) / RFU SNX32 (11753110_a_at) / Fold change /veh SNX32 (11753110_a_at) / RFU CDHR5 (11726645_a_at) / Fold change /veh CDHR5 (11726645_a_at) / RFU RCAN1 (11760418_a_at) / Fold change /veh RCAN1 (11760418_a_at) / RFU FAM167A (11723789_a_at) / Fold change /veh FAM167A (11723789_a_at) / RFU FAM26E (11764081_at) / Fold change /veh FAM26E (11764081_at) / RFU ISYNA1 (11749810_s_at) / Fold change /veh ISYNA1 (11749810_s_at) / RFU ACY1 (11761880_at) / Fold change /veh ACY1 (11761880_at) / RFU 11764098_at / Fold change /veh 11764098_at / RFU SAMD14 (11745864_x_at) / Fold change /veh SAMD14 (11745864_x_at) / RFU NPB (11741838_a_at) / Fold change /veh NPB (11741838_a_at) / RFU TMPRSS6 (11731388_a_at) / Fold change /veh TMPRSS6 (11731388_a_at) / RFU KRTAP10-2 (11738614_at) / Fold change /veh KRTAP10-2 (11738614_at) / RFU ARHGAP8 /// PRR5-ARHGAP8 (11727945_x_at) / Fold change /veh ARHGAP8 /// PRR5-ARHGAP8 (11727945_x_at) / RFU KRTAP5-7 /// NADSYN1 (11734609_at) / Fold change /veh KRTAP5-7 /// NADSYN1 (11734609_at) / RFU RASL12 (11751679_a_at) / Fold change /veh RASL12 (11751679_a_at) / RFU CDKN2B (11736163_a_at) / Fold change /veh CDKN2B (11736163_a_at) / RFU PRF1 (11729649_at) / Fold change /veh PRF1 (11729649_at) / RFU, ZNF638 /// ZNF638-IT1 / Fold change vs veh, ZNF638 /// ZNF638-IT1 / RFU, PANK3 / Fold change vs veh, PANK3 / RFU, SH3YL1 / Fold change vs veh, SH3YL1 / RFU, ZEB2 / Fold change vs veh, ZEB2 / RFU, NRIP1 / Fold change vs veh, NRIP1 / RFU, PTTG1IP / Fold change vs veh, PTTG1IP / RFU, CAPN2 / Fold change vs veh, CAPN2 / RFU, MED14 / Fold change vs veh, MED14 / RFU, SNORA58 / Fold change vs veh, SNORA58 / RFU, C1orf63 / Fold change vs veh, C1orf63 / RFU, LRRFIP1 / Fold change vs veh, LRRFIP1 / RFU, NDUFAF7 / Fold change vs veh, NDUFAF7 / RFU, SLC12A2 / Fold change vs veh, SLC12A2 / RFU, IBTK / Fold change vs veh, IBTK / RFU, ESF1 / Fold change vs veh, ESF1 / Fold change vs veh, TMEM50B / RFU, TAOK1 / Fold change vs veh, TAOK1 / RFU, ACBD3 / Fold change vs veh, ACBD3 / RFU, TMA16 / Fold change vs veh, TMA16 / RFU, RWDD3 / Fold change vs veh, RWDD3 / RFU, BCAT1 / Fold change vs veh, BCAT1 / RFU, EDEM3 / Fold change vs veh, EDEM3 / RFU, TMEM33 / Fold change vs veh, TMEM33 / RFU, WDR75 / Fold change vs veh, WDR75 / RFU, AHCTF1 / Fold change vs veh, AHCTF1 / RFU, TFRC / Fold change vs veh, TFRC / RFU, ZDHHC17 / Fold change vs veh, ZDHHC17 / RFU, NOM1 / Fold change vs veh, NOM1 / RFU, ARL8B / Fold change vs veh, ARL8B / RFU, ZBTB11 / Fold change vs veh, ZBTB11 / RFU, TAMM41 / Fold change vs veh, TAMM41 / RFU, KIAA1704 /// LOC100996395 / Fold change vs veh, KIAA1704 /// LOC100996395 / RFU, ING1 / Fold change vs veh, ING1 / RFU, TRMT61B / Fold change vs veh, TRMT61B / RFU, FUBP3 / Fold change vs veh, FUBP3 / RFU, TP53 / Fold change vs veh, TP53 / RFU, TNKS2 / Fold change vs veh, TNKS2 / RFU, ZFP14 / Fold change vs veh, ZFP14 / RFU, ACTR2 / Fold change vs veh, ACTR2 / RFU, PPP3R1 / Fold change vs veh, PPP3R1 / RFU, PIK3R1 / Fold change vs veh, PIK3R1 / RFU, HNRNPA1 / Fold change vs veh, HNRNPA1 / RFU, RNF170 / Fold change vs veh, RNF170 / RFU, ZNF28 / Fold change vs veh, ZNF28 / RFU, RNGTT / Fold change vs veh, RNGTT / RFU, OGT / Fold change vs veh, OGT / RFU, BRD1 / Fold change vs veh, BRD1 / RFU, MARS / Fold change vs veh, MARS / RFU, ZNF655 / Fold change vs veh, ZNF655 / RFU, FAHD1 / Fold change vs veh, FAHD1 / RFU, BDP1 / Fold change vs veh, BDP1 / RFU, LRRCC1 / Fold change vs veh, LRRCC1 / RFU, ARID1A / Fold change vs veh, ARID1A / RFU, ZNF146 / Fold change vs veh, ZNF146 / RFU, ZNF330 / Fold change vs veh, ZNF330 / RFU, GPN3 / Fold change vs veh, GPN3 / RFU, C9orf123 / Fold change vs veh, C9orf123 / RFU, N4BP2L2 / Fold change vs veh, N4BP2L2 / RFU, ARFIP1 / Fold change vs veh, ARFIP1 / RFU, FAM179B / Fold change vs veh, FAM179B / RFU, BCL10 / Fold change vs veh, BCL10 / RFU, UHRF1BP1L / Fold change vs veh, UHRF1BP1L / RFU, BET1 / Fold change vs veh, BET1 / RFU, CNOT2 / Fold change vs veh, CNOT2 / RFU, ZNF268 / Fold change vs veh, ZNF268 / Fold change vs veh, ZNF507 / RFU, DGCR2 / Fold change vs veh, DGCR2 / RFU, WDSUB1 / Fold change vs veh, WDSUB1 / Fold change vs veh, HSP90B1 /// MIR3652 / RFU, ADSS / Fold change vs veh, ADSS / RFU, GK / Fold change vs veh, GK / RFU, ZNF148 / Fold change vs veh, ZNF148 / RFU, TAF9 / Fold change vs veh, TAF9 / RFU, SLC1A5 / Fold change vs veh, SLC1A5 / RFU, SLMO2 / Fold change vs veh, SLMO2 / RFU, ABCC4 / Fold change vs veh, ABCC4 / RFU, LOC101060439 /// RAP1B / Fold change vs veh, LOC101060439 /// RAP1B / RFU, RFX7 / Fold change vs veh, RFX7 / RFU, GTPBP10 / Fold change vs veh, GTPBP10 / RFU, CNEP1R1 / Fold change vs veh, CNEP1R1 / RFU, BIVM-ERCC5 /// ERCC5 / Fold change vs veh, BIVM-ERCC5 /// ERCC5 / RFU, ILF3 / Fold change vs veh, ILF3 / RFU 11762660_at / Fold change /veh 11762660_at / RFU VCAN (11757783_s_at) / Fold change /veh VCAN (11757783_s_at) / RFU DDX43 (11728927_at) / Fold change /veh DDX43 (11728927_at) / RFU KRT8 (11758188_x_at) / Fold change /veh KRT8 (11758188_x_at) / RFU NKD1 (11759106_at) / Fold change /veh NKD1 (11759106_at) / RFU SRD5A1 (11742802_a_at) / Fold change /veh SRD5A1 (11742802_a_at) / RFU TPSAB1 /// TPSB2 (11721975_s_at) / Fold change /veh TPSAB1 /// TPSB2 (11721975_s_at) / RFU GSTM3 (11746129_a_at) / Fold change /veh GSTM3 (11746129_a_at) / RFU IL23R (11737362_x_at) / Fold change /veh IL23R (11737362_x_at) / RFU TMEM51 (11727254_a_at) / Fold change /veh TMEM51 (11727254_a_at) / RFU PIWIL2 (11732686_x_at) / Fold change /veh PIWIL2 (11732686_x_at) / RFU ORM1 (11744905_x_at) / Fold change /veh ORM1 (11744905_x_at) / RFU CCDC152 (11743942_at) / Fold change /veh CCDC152 (11743942_at) / RFU ECM1 (11717891_a_at) / Fold change /veh ECM1 (11717891_a_at) / RFU IL23R (11748794_a_at) / Fold change /veh IL23R (11748794_a_at) / RFU TNFAIP8L3 (11732012_x_at) / Fold change /veh TNFAIP8L3 (11732012_x_at) / RFU MBOAT4 (11741988_at) / Fold change /veh MBOAT4 (11741988_at) / RFU 11764193_at / Fold change /veh 11764193_at / RFU TMEM53 (11763286_at) / Fold change /veh TMEM53 (11763286_at) / RFU MAGEB2 (11727129_at) / Fold change /veh MAGEB2 (11727129_at) / RFU TMEM200A (11744735_a_at) / Fold change /veh TMEM200A (11744735_a_at) / RFU CCDC152 (11751479_a_at) / Fold change /veh CCDC152 (11751479_a_at) / RFU FAM211A (11726209_a_at) / Fold change /veh FAM211A (11726209_a_at) / RFU RGS16 (11746705_a_at) / Fold change /veh RGS16 (11746705_a_at) / RFU VCAN (11755009_s_at) / Fold change /veh VCAN (11755009_s_at) / RFU RHOB (11743442_s_at) / Fold change /veh RHOB (11743442_s_at) / RFU RGS16 (11720943_a_at) / Fold change /veh RGS16 (11720943_a_at) / RFU RGS16 (11720944_at) / Fold change /veh RGS16 (11720944_at) / RFU, VPS4B / Fold change vs veh, VPS4B / RFU, CREB1 / Fold change vs veh, CREB1 / RFU, DNAJC13 / Fold change vs veh, DNAJC13 / RFU, GNAQ / Fold change vs veh, GNAQ / RFU, CDK5R1 / Fold change vs veh, CDK5R1 / RFU, ZRANB3 / Fold change vs veh, ZRANB3 / RFU, CUL4A / Fold change vs veh, CUL4A / RFU, CCNY / Fold change vs veh, CCNY / RFU, UFL1 / Fold change vs veh, UFL1 / RFU, COG3 / Fold change vs veh, COG3 / RFU, DIAPH2 / Fold change vs veh, DIAPH2 / RFU, SKA2 / Fold change vs veh, SKA2 / RFU, AFF3 / Fold change vs veh, AFF3 / RFU, LMF1 / Fold change vs veh, LMF1 / RFU, IPO11 / Fold change vs veh, IPO11 / RFU, DFFB / Fold change vs veh, DFFB / RFU, FOXP1 / Fold change vs veh, FOXP1 / RFU, CARD8 / Fold change vs veh, CARD8 / RFU, STRN3 / Fold change vs veh, STRN3 / RFU, ADK / Fold change vs veh, ADK / RFU, RASSF2 / Fold change vs veh, RASSF2 / RFU, WIPF1 / Fold change vs veh, WIPF1 / RFU, LARP1B / Fold change vs veh, LARP1B / RFU, RASA1 / Fold change vs veh, RASA1 / RFU, RB1 / Fold change vs veh, RB1 / RFU, PPFIA1 / Fold change vs veh, PPFIA1 / RFU, MAT2A / Fold change vs veh, MAT2A / RFU, CCT5 / Fold change vs veh, CCT5 / RFU, WDR92 / Fold change vs veh, WDR92 / RFU, CUX1 / Fold change vs veh, CUX1 / RFU, TTC7A / Fold change vs veh, TTC7A / RFU, TMEM135 / Fold change vs veh, TMEM135 / RFU, DEPTOR / Fold change vs veh, DEPTOR / RFU, CPM / Fold change vs veh, CPM / RFU, DNAJB6 / Fold change vs veh, DNAJB6 / RFU, CACNA2D3 / Fold change vs veh, CACNA2D3 / RFU, DTX4 / Fold change vs veh, DTX4 / RFU, TFCP2 / Fold change vs veh, TFCP2 / RFU, GMCL1 /// GMCL1P1 / Fold change vs veh, GMCL1 /// GMCL1P1 / RFU, AEBP2 / Fold change vs veh, AEBP2 / RFU, SNHG1 /// SNORD22 /// SNORD25 /// SNORD26 /// SNORD27 /// SNORD28 /// SNORD29 /// SNORD31 / Fold change vs veh, SNHG1 /// SNORD22 /// SNORD25 /// SNORD26 /// SNORD27 /// SNORD28 /// SNORD29 /// SNORD31 / Fold change (Aza/veh), C12orf56 (ProbeSet 11735607_a_at) / Fold change (ACY-1035/veh), C12orf56 (ProbeSet 11735607_a_at) / Fold change (Aza/veh), FGFR1OP (ProbeSet 11751329_s_at) / Fold change (ACY-1035/veh), FGFR1OP (ProbeSet 11751329_s_at) / Fold change (Aza/veh), VPS36 (ProbeSet 11739960_a_at) / Fold change (ACY-1035/veh), VPS36 (ProbeSet 11739960_a_at) / RFU SYPL1 (11715823_x_at) / Fold change /veh SYPL1 (11715823_x_at) / RFU IGFBP7 (11715501_s_at) / Fold change /veh IGFBP7 (11715501_s_at) / RFU REEP3 (11722064_at) / Fold change /veh REEP3 (11722064_at) / RFU IGLL1 (11728026_x_at) / Fold change /veh IGLL1 (11728026_x_at): dose or concentration left out as unconfirmed
# Settings: ProbeSet 11731583_a_at; LIST D
compound,measurement,value
Nc1ncn([C@@H]2O[C@H](CO)[C@@H](O)[C@H]2O)c(=O)n1 [azacitidine],"RFU, LARP1B",75.03 RFU
